From patent US20190292246A1, “COMBINATION THERAPY OF A CELL BASED THERAPY AND A MICROGLIA IMHIBITOR” (JUNO THERAPEUTICS, INC., priority 2016, published 2019)

Test: Non-human primate combination therapy: PLX3397, CD20 CAR T cells and cyclophosphamide preconditioning
Format: in vivo
Settings: PLX3397 40 mg/kg twice daily from 30 days before to 21 days after cells; Rhesus macaques
Procedure: Animal subjects of the non-human primate (NHP), Macaca mulatta, which in aspects closely recapitulates the human immune system are administered cell therapy (T cells expressing a CAR targeting CD20), following administration of an agent to ameliorate toxicity. Thirty days prior to the initiation of cell therapy, T cells are isolated from peripheral blood of Rhesus macaques (n=3) and engineered via transduction with a viral vector encoding a CD20 chimeric antigen receptor (CAR), which is a tumor-associated or tumor-specific antigen, and optionally a detectable marker, such as GFP. […]
After preconditioning treatment, subjects receive a first dose of CAR-expressing cells by infusion that is less than or equal to about 1×10^7 cells/kg body weight at day 0. […] Optionally, at seven days after the administration of the of cells, the CAR-expressing cells are detected by flow cytometry and quantitative polymerase chain reaction (qPCR) to measure in vivo proliferation and persistence of the administered cells and B cell aplasia. […] Recipient animals are monitored for clinical signs and symptoms of one or more toxic outcomes or toxicities such as CRS and neurotoxicity, and data are collected longitudinally to determine CAR T cell expansion and persistence, B cell aplasia, as well as clinical labs of CRS and cytokine levels. […]

FC(F)(F)c1ccc(CNc2ccc(Cc3c[nH]c4ncc(Cl)cc34)cn2)cn1 [PLX3397, 5-((5-chloro-1H-pyrrolo[2,3-b]pyridin-3-yl)methyl)-N-((6-(trifluoromethyl)pyridin-3-yl)methyl)pyridin-2-amine]
symptoms of toxicity (CRS, neurotoxicity) after CAR T cell therapy: reduced or prevented
